Each compound was assayed against T1, rhCRTh2 (Homo sapiens, UniProt Q9Y5Y4) (assay: Ligand binding assay ([3H]PGD2, SPA beads, HEK cell membranes)). Details: [3H]PGD2 binding to membranes of HEK cells expressing rhCRTh2/Gα16, SPA, 2 hours at RT; read-out: pIC50 value (converted).
T1 construct: expressed in transfected cells; host or cells: HEK cells (membrane preparation)
T1 sequence (Q9Y5Y4 1-395): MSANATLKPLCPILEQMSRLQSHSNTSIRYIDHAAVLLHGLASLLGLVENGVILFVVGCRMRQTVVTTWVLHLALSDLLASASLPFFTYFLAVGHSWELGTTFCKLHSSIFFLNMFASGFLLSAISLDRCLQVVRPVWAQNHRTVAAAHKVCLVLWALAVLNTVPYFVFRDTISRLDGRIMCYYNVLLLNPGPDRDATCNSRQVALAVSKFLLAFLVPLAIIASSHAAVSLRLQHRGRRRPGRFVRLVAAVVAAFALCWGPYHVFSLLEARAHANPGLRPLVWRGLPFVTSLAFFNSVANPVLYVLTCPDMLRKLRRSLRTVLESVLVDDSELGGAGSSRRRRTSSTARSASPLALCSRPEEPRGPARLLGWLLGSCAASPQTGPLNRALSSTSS
Description: [^3H]PGD2 was purchased from Perkin Elmer Life Sciences with a specific activity of 100-210 Ci/mmol. All other chemicals were of analytical grade.
HEK cells expressing rhCRTh2/Gα16 were routinely maintained in DMEM containing 10% Foetal Bovine Serum (HyClone), 1 mg/ml geneticin, 2 mM L-glutamine and 1% non-essential amino acids. For the preparation of membranes, the adherent transfected HEK cells were grown to confluence in two layer tissue culture factories (Fisher, catalogue number TKT-170-070E). Maximal levels of receptor expression were induced by addition of […] sodium butyrate for the last 18 hours of culture. The adherent cells were washed once with phosphate buffered saline (PBS, 50 ml per cell factory) and detached by the addition of 50 ml per cell factory of ice-cold membrane homogenisation buffer [20 mM HEPES (pH 7.4), 0.1 mM dithiothreitol, 1 mM EDTA, 0.1M phenyl methyl sulphonyl fluoride and 100 μg/ml bacitracin]. Cells were pelleted by centrifugation at 220×g for 10 minutes at 4° C., re-suspended in half the original volume of fresh membrane homogenisation buffer and disrupted using a Polytron homogeniser for 2×20 second bursts keeping the tube in ice at all times. […] The final pellet was re-suspended in 4 ml of membrane homogenisation buffer per cell factory used and the protein content determined. […]
All assays were performed in Corning clear bottomed, white 96-well NBS plates (Fisher). […] (The optimum coating concentrations were determined for each batch of membranes) The beads were pelleted by centrifugation (800×g for 7 minutes at 4° C.), washed once with assay buffer (50 mM HEPES pH 7.4 containing 5 mM magnesium chloride) and finally re-suspended in assay buffer at a bead concentration of 10 mg/ml. […]
Compounds and DK-PGD2 were dissolved in DMSO and diluted in the same solvent to 100× the required final concentration. […] The assay plate was incubated at RT for 2 hours and counted on a Wallac Microbeta liquid scintillation counter (1 minute per well).

**Q.** `CS(=O)(=O)c1ccc(Sc2cc(Cl)ccc2OCc2nnn[nH]2)c(Cl)c1` [Example 4] was tested. Which IC50 did it give?
**A.** 158 nM

**Q.** How did the IC50 turn out when `CC(=O)NS(=O)(=O)Cc1ccc(Cl)cc1Oc1ccc(S(C)(=O)=O)cc1Cl` [Example 6, N-({4-chloro-2-[2-chloro-4-(methylsulfonyl)phenoxy]benzyl}sulfonyl)acetamide] was run?
**A.** 158 nM

**Q.** How did the IC50 turn out when `CS(=O)(=O)NC(=O)Cc1ccc(Cl)c(Oc2ccc(S(C)(=O)=O)cc2Cl)c1` [Example 9, 2-{4-chloro-3-[2-chloro-4-(methylsulfonyl)phenoxy]phenyl}-N-(methylsulfonyl)acetamide] was run?
**A.** 141 nM
